Test system: Acinetobacter baumannii isolates
Assay: Antimicrobial susceptibility test, disc diffusion method (CLSI M100-S24)
Type: cell-based
Parameters: key to Inhibition zone: “NZ” indicated that no zone of inhibition was observed
Conditions: for susceptibility category: AMX disc; for Inhibition zone: disc diffusion
Description: A total of 33 non-duplicate, non-consecutive clinical isolates of Multi-Drug Resistant (MDR) Acinetobacter baumannii were collected from burn wards (“AB1-AB33”). Acinetobacter baumannii ATCC BAA 747 and Pseudomonas aeruginosa ATCC 27853 were used as control strains. The isolates were stored at −80° C. in trypticase soy broth containing 20% glycerol.
Antimicrobial susceptibility tests of the collection of isolates were conducted using the disc diffusion method. The experiment was performed according to the recommendations and guidelines of Clinical Laboratory Standard Institutes (CLSI M100-S24; 2014). Clinical and Laboratory Standards Institute (CLSI), “Performance standards for antimicrobial susceptibility testing; twenty-fourth informational supplement,” Document M100-S24, Clinical and Laboratory Standards Institute (CLSI), Wayne, Pa., USA, 2014.
A panel of commercial antibiotic discs (Amoxicillin (AMX), Amoxicillin/clavulanic acid (AMX/CLA), Piperacillin (PIP), Piperacillin/Tazobactam (PIP/TAZ), Ceftazidime (CAZ), Cefotaxime (CTX), Cefepime (FEP), Cefoxitin (FOX), Aztreonam (ATM), Imipenem (IP), Gentamicin (GEN), Amikacin (AK), Neomycin (NEO), Levofloxacin (LEV), Chloramphenicol (CHL), Tetracycline (TET), sulfamethoxazole/trimethoprim (SUL/TRI) was used for susceptibility testing. All commercial antibiotic discs were purchased from BBL (Becton Dickinson, USA).
Forty grams of Mueller-Hinton Agar (MHA) were suspended in 1 Liter distilled water and then boiled to dissolve the powder completely. The medium was sterilized by autoclaving at 121° C. for 15 min. After autoclaving, the medium was cooled to 45° C. and 25 mL of molten agar media was poured into sterile Petri dishes (90 mm diameter) to give a depth of about 4 mm. The surface of the agar was dried to remove excess moisture before use. The plates were stored at 4-8° C. in sealed plastic bags if not used immediately.
The inoculum suspension was prepared by selecting three to five morphologically similar colonies from overnight growth (16-24 h of incubation) on blood agar medium. […] The suspension density was measured using a UV spectrophotometer calibrated with a 0.5 McFarland standard. The density of the suspension was adjusted to McFarland 0.5 by addition of saline or more microorganisms. The adjusted inoculum suspension was used within 60 min of preparation.
A sterile cotton swab was dipped into the bacterial suspension and the excess fluid was removed by turning the swab against the inside wall of the tube to avoid over-inoculation of plates. The inoculum was spread evenly over the entire surface of the agar plate by swabbing in three directions.
The predetermined panel of antimicrobial disks was applied firmly on the inoculated Mueller-Hinton agar surface within 15 min of inoculation of the plates by a disc dispenser device. A maximum of six disks were accommodated on a 90-mm circular plate.
Within 15 min of application of antimicrobial disks, the plates were inverted and incubated aerobically at 35-37° C. for 18-20 h.
After incubation, inhibition zones were measured at the point where no obvious growth is detected by the unaided eye when the plate is held about 30 cm from the eye. Inhibition zone diameters were measured to the nearest millimeter with a ruler. The plates were read from the back of the plate with reflected light against a dark background. Zone diameters were interpreted and categorized as susceptible “S”, intermediate “I”, or resistant “R” according to the CLSI clinical breakpoint tables (see Table 1 and Table 2).

Structure (SMILES): CC1(C)S[C@@H]2[C@H](NC(=O)[C@H](N)c3ccc(O)cc3)C(=O)N2[C@H]1C(=O)O [AMX, Amoxicillin]
- susceptibility category (isolate AB1): R (Resistant ≤13)
- Inhibition zone (isolate AB1): NZ
- susceptibility category (isolate AB2): R (Resistant ≤13)
- Inhibition zone (isolate AB2): NZ
- susceptibility category (isolate AB3): R (Resistant ≤13)
- Inhibition zone (isolate AB3): NZ
- susceptibility category (isolate AB4): R (Resistant ≤13)
- Inhibition zone (isolate AB4): NZ
- susceptibility category (isolate AB5): R (Resistant ≤13)
- Inhibition zone (isolate AB5): NZ
- susceptibility category (isolate AB6): R (Resistant ≤13)
- Inhibition zone (isolate AB6): NZ
- susceptibility category (isolate AB7): R (Resistant ≤13)
- Inhibition zone (isolate AB7): NZ
- susceptibility category (isolate AB8): R (Resistant ≤13)
- Inhibition zone (isolate AB8): NZ
- susceptibility category (isolate AB9): R (Resistant ≤13)
- Inhibition zone (isolate AB9): NZ
- susceptibility category (isolate AB10): R (Resistant ≤13)
- Inhibition zone (isolate AB10): NZ
- susceptibility category (isolate AB11): R (Resistant ≤13)
- Inhibition zone (isolate AB11): NZ
- susceptibility category (isolate AB12): R (Resistant ≤13)
- Inhibition zone (isolate AB12): NZ
- susceptibility category (isolate AB13): R (Resistant ≤13)
- Inhibition zone (isolate AB13): NZ
- susceptibility category (isolate AB14): R (Resistant ≤13)
- Inhibition zone (isolate AB14): NZ
- susceptibility category (isolate AB15): R (Resistant ≤13)
- Inhibition zone (isolate AB15): NZ
- susceptibility category (isolate AB16): R (Resistant ≤13)
- Inhibition zone (isolate AB16): NZ
- susceptibility category (isolate AB17): R (Resistant ≤13)
- Inhibition zone (isolate AB17): NZ
- susceptibility category (isolate AB18): R (Resistant ≤13)
- Inhibition zone (isolate AB18): NZ
- susceptibility category (isolate AB19): R (Resistant ≤13)
- Inhibition zone (isolate AB19): NZ
- susceptibility category (isolate AB20): R (Resistant ≤13)
- Inhibition zone (isolate AB20): NZ
- susceptibility category (isolate AB21): R (Resistant ≤13)
- Inhibition zone (isolate AB21): NZ
- susceptibility category (isolate AB22): R (Resistant ≤13)
- Inhibition zone (isolate AB22): NZ
- susceptibility category (isolate AB23): R (Resistant ≤13)
- Inhibition zone (isolate AB23): NZ
- susceptibility category (isolate AB24): R (Resistant ≤13)
- Inhibition zone (isolate AB24): NZ
- susceptibility category (isolate AB25): R (Resistant ≤13)
- Inhibition zone (isolate AB25): NZ
- susceptibility category (isolate AB26): R (Resistant ≤13)
- Inhibition zone (isolate AB26): NZ
- susceptibility category (isolate AB27): R (Resistant ≤13)
- Inhibition zone (isolate AB27): NZ
- susceptibility category (isolate AB28): R (Resistant ≤13)
- Inhibition zone (isolate AB28): 9 mm
- susceptibility category (isolate AB29): R (Resistant ≤13)
- Inhibition zone (isolate AB29): NZ
- susceptibility category (isolate AB30): R (Resistant ≤13)
- Inhibition zone (isolate AB30): NZ
- susceptibility category (isolate AB31): R (Resistant ≤13)
- Inhibition zone (isolate AB31): 8 mm
- susceptibility category (isolate AB32): R (Resistant ≤13)
- Inhibition zone (isolate AB32): 8 mm
- susceptibility category (isolate AB33): R (Resistant ≤13)
- Inhibition zone (isolate AB33): NZ

Structure (SMILES): CO[C@@]1(NC(=O)Cc2cccs2)C(=O)N2C(C(=O)O)=C(COC(N)=O)CS[C@@H]21 [FOX, Cefoxitin]
- Inhibition zone (isolate AB1): NZ
- Inhibition zone (isolate AB2): NZ
- Inhibition zone (isolate AB3): NZ
- Inhibition zone (isolate AB4): NZ
- Inhibition zone (isolate AB5): NZ
- Inhibition zone (isolate AB6): NZ
- Inhibition zone (isolate AB7): NZ
- Inhibition zone (isolate AB8): NZ
- Inhibition zone (isolate AB9): NZ
- Inhibition zone (isolate AB10): NZ
- Inhibition zone (isolate AB11): NZ
- Inhibition zone (isolate AB12): NZ
- Inhibition zone (isolate AB13): NZ
- Inhibition zone (isolate AB14): NZ
- Inhibition zone (isolate AB15): NZ
- Inhibition zone (isolate AB16): 22 mm
- Inhibition zone (isolate AB17): NZ
- Inhibition zone (isolate AB18): NZ
- Inhibition zone (isolate AB19): NZ
- Inhibition zone (isolate AB20): NZ
- Inhibition zone (isolate AB21): NZ
- Inhibition zone (isolate AB22): NZ
- Inhibition zone (isolate AB23): NZ
- Inhibition zone (isolate AB24): NZ
- Inhibition zone (isolate AB25): NZ
- Inhibition zone (isolate AB26): NZ
- Inhibition zone (isolate AB27): NZ
- Inhibition zone (isolate AB28): NZ
- Inhibition zone (isolate AB29): NZ
- Inhibition zone (isolate AB30): NZ
- Inhibition zone (isolate AB31): 9 mm
- Inhibition zone (isolate AB32): NZ
- Inhibition zone (isolate AB33): NZ

Structure (SMILES): CO/N=C(\C(=O)N[C@@H]1C(=O)N2C(C(=O)[O-])=C(C[N+]3(C)CCCC3)CS[C@H]12)c1csc(N)n1 [FEP, Cefepime]
- Inhibition zone (isolate AB1): 20 mm
- Inhibition zone (isolate AB2): 16 mm
- Inhibition zone (isolate AB3): 18 mm
- Inhibition zone (isolate AB4): 14 mm
- Inhibition zone (isolate AB5): 7 mm
- Inhibition zone (isolate AB6): 21 mm
- Inhibition zone (isolate AB7): NZ
- Inhibition zone (isolate AB8): NZ
- Inhibition zone (isolate AB9): 22 mm
- Inhibition zone (isolate AB10): 7 mm
- Inhibition zone (isolate AB11): NZ
- Inhibition zone (isolate AB12): NZ
- Inhibition zone (isolate AB13): NZ
- Inhibition zone (isolate AB14): NZ
- Inhibition zone (isolate AB15): 8 mm
- Inhibition zone (isolate AB16): 35 mm
- Inhibition zone (isolate AB17): 11 mm
- Inhibition zone (isolate AB18): NZ
- Inhibition zone (isolate AB19): NZ
- Inhibition zone (isolate AB20): NZ
- Inhibition zone (isolate AB21): NZ
- Inhibition zone (isolate AB22): NZ
- Inhibition zone (isolate AB23): NZ
- Inhibition zone (isolate AB24): 7 mm
- Inhibition zone (isolate AB25): 10 mm
- Inhibition zone (isolate AB26): 14 mm
- Inhibition zone (isolate AB27): 8 mm
- Inhibition zone (isolate AB28): NZ
- Inhibition zone (isolate AB29): NZ
- Inhibition zone (isolate AB30): NZ
- Inhibition zone (isolate AB31): NZ
- Inhibition zone (isolate AB32): NZ
- Inhibition zone (isolate AB33): 18 mm

Structure (SMILES): CO/N=C(\C(=O)N[C@@H]1C(=O)N2C(C(=O)O)=C(COC(C)=O)CS[C@H]12)c1csc(N)n1 [CTX, Cefotaxime]
- Inhibition zone (isolate AB1): NZ
- Inhibition zone (isolate AB2): NZ
- Inhibition zone (isolate AB3): 15 mm
- Inhibition zone (isolate AB4): 8 mm
- Inhibition zone (isolate AB5): NZ
- Inhibition zone (isolate AB6): 17 mm
- Inhibition zone (isolate AB7): NZ
- Inhibition zone (isolate AB8): NZ
- Inhibition zone (isolate AB9): 11 mm
- Inhibition zone (isolate AB10): NZ
- Inhibition zone (isolate AB11): NZ
- Inhibition zone (isolate AB12): NZ
- Inhibition zone (isolate AB13): NZ
- Inhibition zone (isolate AB14): NZ
- Inhibition zone (isolate AB15): NZ
- Inhibition zone (isolate AB16): 32 mm
- Inhibition zone (isolate AB17): NZ
- Inhibition zone (isolate AB18): NZ
- Inhibition zone (isolate AB19): NZ
- Inhibition zone (isolate AB20): NZ
- Inhibition zone (isolate AB21): NZ
- Inhibition zone (isolate AB22): NZ
- Inhibition zone (isolate AB23): NZ
- Inhibition zone (isolate AB24): NZ
- Inhibition zone (isolate AB25): 16 mm
- Inhibition zone (isolate AB26): NZ
- Inhibition zone (isolate AB27): NZ
- Inhibition zone (isolate AB28): NZ
- Inhibition zone (isolate AB29): NZ
- Inhibition zone (isolate AB30): NZ
- Inhibition zone (isolate AB31): 8 mm
- Inhibition zone (isolate AB32): 8 mm
- Inhibition zone (isolate AB33): 21 mm

Reference: patent publication US11617726B2, “Method for preventing, treating, or ameliorating a microbial infection” (priority 2018, dated 2023)
